Experimental data from patent publication US10874108B2, “Anti-microbial compositions” (5D HEALTH PROTECTION GROUP LTD, priority 2016, dated 2020).
“And” between values parts separate entries of the source, which are not always exact repeats. Equal values may be shown once.

How the values were obtained:
[1] = Displacement of metals from EDTA complexes by physiological saline; assay type: physicochemical
Description: Adding saline to the suspension of Ag4(EDTA), the suspension quickly precipitated a solid (AgCl). The precipitate was filtered off, washed with deionized water 4 times; and then dried in a vacuum oven at 50° C. in a dark flask to avoid exposure to direct light.
The displacement experiment described above was repeated for compounds 1-4 to provide the percent of the displacement of silver, copper, zinc from the EDTA complexes by physiological saline.

[2] = Elution from collagen films; assay type: physicochemical; settings: for Elution in saline (ppm) EDTA / Elution in saline (ppm) Zinc / Elution in water (ppm) EDTA / Elution in saline (ppm) Silver / Elution in water (ppm) Silver / Elution in water (ppm) Zinc: collagen film; for Overall zinc eluted out from collagen films: 5 days; for In total EDTA eluted out from collagen films: over 5 days; for In total silver eluted out from collagen films: over the 5 days
Description: The EDTA compounds 1-4 were added to collagen films and then investigated for elution of these complexes. The collagen film was prepared from a solution of oxidized bovine atelocollagen type I, glycerol and EDTA compounds 1-4. 1.8 ml 10% glycerol solution was added into 20 ml oxidized bovine atelocollagen type I solution. 5 ml EDTA complex were added into the solution with vigorous stirring, and the mixture was adjusted to pH=7.0 by dropwise addition of 5% NaOH. The final solution was adjusted to 30 ml by ultrapure water and was cast into PVC mould. The solution was dried in a fume hood overnight. All the collagen films, impregnated with the EDTA complexes were immersed in water, saline or simulated wound fluid.

[3] = system: S. aureus 24-hour CDC biofilms; assay: Colonies after exposure of 24-hour CDC biofilms to EDTA compounds; assay type: cell-based
[4] = system: P. aeruginosa 24-hour CDC biofilms; assay: as above; assay type: cell-based
[5] = system: P. aeruginosa biofilms; assay: CDC bioreactor biofilm LR/kill, EDTA compounds at 100 ppm silver; assay type: cell-based; settings: 100 ppm of silver, exposed 24 hours
Description: (§1) Microbial cultures were exposed to compounds for 24 hours. Compounds were diluted according to 100 ppm of silver. Biofilms were formed using the CDC bioreactor. Samples were performed in triplicate.

[6] = system: S. aureus biofilms; assay: as above; assay type: cell-based; settings: 100 ppm of silver, exposed 24 hours
Description: as §1

[7] = system: P. aeruginosa biofilms; assay: MBEC plate 48-hour biofilm, liquid EDTA-Ag2-Zn compound; assay type: cell-based
Description: Biofilms were formed using the MBEC plate method. Log reduction (LR) values are expressed with standard error. N.D (not determined) is stated when no colonies were detected upon enumeration.

[8] = system: E. faecalis ATCC 29212 biofilm; assay: MBEC model (ASTM E2799), liquid formulas; assay type: cell-based; settings: treated 24 hours
Description: (§2) The MBEC model (ASTM E2799) was used to assess the anti-biofilm efficacy of the liquid formulas. Biofilms were grown on polystyrene pegs in the MBEC model for either 24 or 48 hours before treatment. Using the liquid form of the EDTA complexes 24- and 48-hour biofilms were tested (Table 20).
(§3) 24- and 48-hour biofilms were formed using MBEC plate method and treated for 24 hours. Technical replicates n=3. Log reduction (LR) values show±standard error (SE) of LR value.

[9] = system: P. aeruginosa NCTC 10662 biofilm; assay: MBEC model (ASTM E2799), liquid formulas; assay type: cell-based; settings: treated 24 hours
Description: as §2, §3

[10] = system: S. aureus ATCC 29213 biofilm; assay: MBEC model (ASTM E2799), liquid formulas; assay type: cell-based; settings: treated 24 hours
Description: as §2, §3

[11] = system: S. aureus MRSA BAA-43 biofilm; assay: MBEC model (ASTM E2799), liquid formulas; assay type: cell-based; settings: treated 24 hours
Description: as §2, §3

[12] = system: S. epidermidis ATCC 35984 biofilm; assay: MBEC model (ASTM E2799), liquid formulas; assay type: cell-based; settings: treated 24 hours
Description: as §2, §3

[13] = system: S. aureus wound biofilm; assay: Wound biofilm model (Labskin), histological examination; assay type: cell-based; settings: 100 ppm; day 6; vs untreated S. aureus wound biofilm
[14] = system: interleukin-6 (IL-6); assay: IL-6 ELISA, wounded biofilm-containing Labskin; assay type: cell-based; settings: 100 ppm; vs S. aureus wound biofilm control
Description: Enzyme-linked immunosorbent assay (ELISA) was used to assess the secreted levels of the inflammatory cytokine interleukin-6 (IL-6) according to previously published methods (Foster, A. M., Baliwag, J., Chen, C. S., Guzman, A. M., Stoll, S. W., Gudjonsson, J. E., Ward, N. L. & Johnston, A. 2014, IL-36 promotes myeloid cell infiltration, activation, and inflammatory activity in skin, The Journal of Immunology, 192, 6053-6061). […] The IL-6 levels were reduced further when compared to the S. aureus wound biofilm control.
ELISA was used to assess the levels of IL-6 in conditioned cell culture medium. Culture medium was changed at day 4, which accounts for the reduction in IL-6. […] Tests were performed in duplicate. Error bars indicate standard deviation.

[15] = system: cells; assay: Direct cytotoxicity, Neutral Red Uptake assay
[16] = day 1, listed as EDTA compound 4

In the case of `O=C([O-])CN(CCN(CC(=O)[O-])CC(=O)[O-])CC(=O)[O-].[Ag+].[Ag+].[Zn+2]` [Compound 4, Ag2ZnEDTA], the “Displacement (%) Silver” value [1] is reported as 80.77 ± 6.45%, the “Displacement (%) Zinc” value [1] is reported as 38.86 ± 9.01 % and the “Elution in saline (ppm) EDTA” value ([2]; day 1) is reported as 9.75 ± 1.31 ppm. The “Elution in saline (ppm) Zinc” value ([2]; day 1) was 5.65 ± 0.06 ppm, the “Elution in water (ppm) EDTA” value ([2]; day 1) was 9.25 ± 0.90 ppm and the “Elution in saline (ppm) Silver” value [2, 16] was 20.34±1.42 ppm. The “Elution in water (ppm) Silver” value [2, 16] was 19.08±0.92 ppm, the “Elution in water (ppm) Zinc” value [2, 16] was 9.86±0.39 ppm and the “Elution in saline (ppm) EDTA” value ([2]; day 2) was 0.47 ± 0.35 ppm. For the same compound, the “Elution in saline (ppm) Silver” value ([2]; day 2) was 14.49 ± 2.63 ppm, the “Elution in saline (ppm) Zinc” value ([2]; day 2) was 6.26 ± 0.67 ppm and the “Elution in water (ppm) EDTA” value ([2]; day 2) was 0.96 ± 0.64 ppm. For the same compound, the “Elution in water (ppm) Silver” value ([2]; day 2) was 12.61 ± 1.04 ppm, the “Elution in water (ppm) Zinc” value ([2]; day 2) was 9.60 ± 0.33 ppm and the “Elution in saline (ppm) EDTA” value ([2]; day 3) was 0.40 ± 0.08 ppm. The “Elution in saline (ppm) Silver” value ([2]; day 3) was 15.23 ± 2.41 ppm, the “Elution in saline (ppm) Zinc” value ([2]; day 3) was 6.44 ± 0.60 ppm and the “Elution in water (ppm) EDTA” value ([2]; day 3) was 1.53 ± 1.08 ppm. The “Elution in water (ppm) Silver” value ([2]; day 3) was 10.64 ± 1.19 ppm, the “Elution in water (ppm) Zinc” value ([2]; day 3) was 8.08 ± 0.70 ppm and the “Elution in saline (ppm) EDTA” value ([2]; day 4) was −0.13 ± 0.90 ppm. The “Elution in saline (ppm) Silver” value ([2]; day 4) was 12.93 ± 2.10 ppm, the “Elution in saline (ppm) Zinc” value ([2]; day 4) was 5.58 ± 0.33 ppm and the “Elution in water (ppm) EDTA” value ([2]; day 4) was 0.24 ± 0.28 ppm. The “Elution in water (ppm) Silver” value ([2]; day 4) was 9.56 ± 0.79 ppm, the “Elution in water (ppm) Zinc” value ([2]; day 4) was 6.24 ± 0.40 ppm and the “Elution in saline (ppm) EDTA” value ([2]; day 5) was −0.07 ± 0.93 ppm. For the same compound, the “Elution in saline (ppm) Silver” value ([2]; day 5) was 13.30 ± 2.14 ppm, the “Elution in saline (ppm) Zinc” value ([2]; day 5) was 5.18 ± 0.15 ppm and the “Elution in water (ppm) EDTA” value ([2]; day 5) was 1.17 ± 1.31 ppm. The “Elution in water (ppm) Silver” value ([2]; day 5) was 10.35 ± 0.73 ppm, the “Elution in water (ppm) Zinc” value ([2]; day 5) was 6.53 ± 0.23 ppm and the “Overall zinc eluted out from collagen films” value ([2]; in saline) was 27.36%. For the same compound, the “In total EDTA eluted out from collagen films” value ([2]; in saline) was 13.44%, the “In total silver eluted out from collagen films” value ([2]; in saline) was 66.22% and the “Overall zinc eluted out from collagen films” value ([2]; in water) was 37.89%. The “In total EDTA eluted out from collagen films” value ([2]; in water) was 16.95%, the “In total silver eluted out from collagen films” value ([2]; in water) was 54.03% and the “Number of colonies detected” value [3] was 0 Cfu/ml. The “Number of colonies detected” value [4] was 0 Cfu/ml, the “Kill %” value [5] was 99.95% and the LR [5] was 3.34 ± 0.11. For the same compound, the “Kill %” value [6] was 99.98%, the LR [6] was 3.73 ± 0.18 and the “% Kill” value ([7]; 62.5 ppm, treatment 1 hours) was 100%. The “% Kill” value ([7]; 62.5 ppm, treatment 24 hours) was 100%, the “% Kill” value ([7]; 125 ppm, treatment 1 hours) was 100% and the “% Kill” value ([7]; 125 ppm, treatment 24 hours) was 100%. For the same compound, the “% Kill” value ([7]; 250 ppm, treatment 1 hours) was 100%, the “% Kill” value ([7]; 250 ppm, treatment 24 hours) was 100% and the “% Kill” value ([7]; 500 ppm, treatment 1 hours) was 100%. For the same compound, the “% Kill” value ([7]; 500 ppm, treatment 24 hours) was 100%, the “% Kill” value ([7]; 1000 ppm, treatment 1 hours) was 100% and the “% Kill” value ([7]; 1000 ppm, treatment 24 hours) was 100%. The Kill % ([8]; 50 ppm, 24-Hour Biofilm) was 100%, the LR ([8]; 50 ppm, 24-Hour Biofilm) was 6.35 and the Kill % ([8]; 50 ppm, 48-Hour Biofilm) was 100%. It also gave an LR ([8]; 50 ppm, 48-Hour Biofilm) of 6.40, a Kill % ([8]; 100 ppm, 24-Hour Biofilm) of 100% and an LR ([8]; 100 ppm, 24-Hour Biofilm) of 6.35. The Kill % ([8]; 100 ppm, 48-Hour Biofilm) was 100%, the LR ([8]; 100 ppm, 48-Hour Biofilm) was 6.40 and the Kill % ([9]; 50 ppm, 24-Hour Biofilm) was 100%. It also gave an LR ([9]; 50 ppm, 24-Hour Biofilm) of 7.44, a Kill % ([9]; 50 ppm, 48-Hour Biofilm) of 100% and an LR ([9]; 50 ppm, 48-Hour Biofilm) of 8.44. The Kill % ([9]; 100 ppm, 24-Hour Biofilm) was 100%, the LR ([9]; 100 ppm, 24-Hour Biofilm) was 7.44 and the Kill % ([9]; 100 ppm, 48-Hour Biofilm) was 100%. The LR ([9]; 100 ppm, 48-Hour Biofilm) was 8.44, the Kill % ([10]; 50 ppm, 24-Hour Biofilm) was 100% and the LR ([10]; 50 ppm, 24-Hour Biofilm) was 6.44. The Kill % ([10]; 50 ppm, 48-Hour Biofilm) was 100%, the LR ([10]; 50 ppm, 48-Hour Biofilm) was 6.50 and the Kill % ([10]; 100 ppm, 24-Hour Biofilm) was 100%. It also gave an LR ([10]; 100 ppm, 24-Hour Biofilm) of 6.44, a Kill % ([10]; 100 ppm, 48-Hour Biofilm) of 100% and an LR ([10]; 100 ppm, 48-Hour Biofilm) of 6.50. The Kill % ([11]; 50 ppm, 24-Hour Biofilm) was 100%, the LR ([11]; 50 ppm, 24-Hour Biofilm) was 5.40 and the Kill % ([11]; 50 ppm, 48-Hour Biofilm) was 100%. For the same compound, the LR ([11]; 50 ppm, 48-Hour Biofilm) was 6.43, the Kill % ([11]; 100 ppm, 24-Hour Biofilm) was 100% and the LR ([11]; 100 ppm, 24-Hour Biofilm) was 5.40. The Kill % ([11]; 100 ppm, 48-Hour Biofilm) was 100%, the LR ([11]; 100 ppm, 48-Hour Biofilm) was 6.43 and the Kill % ([12]; 50 ppm, 24-Hour Biofilm) was 100%. It also gave an LR ([12]; 50 ppm, 24-Hour Biofilm) of 6.09, a Kill % ([12]; 50 ppm, 48-Hour Biofilm) of 100% and an LR ([12]; 50 ppm, 48-Hour Biofilm) of 6.41. For the same compound, the Kill % ([12]; 100 ppm, 24-Hour Biofilm) was 100%, the LR ([12]; 100 ppm, 24-Hour Biofilm) was 6.09 and the Kill % ([12]; 100 ppm, 48-Hour Biofilm) was 100%. The LR ([12]; 100 ppm, 48-Hour Biofilm) was 6.41, the “amount of microorganisms within the tissues (histology)” value [13] was “reduced amount of microorganisms within the tissues” and the “secreted IL-6 (inflammatory marker)” value [14] was “significant reduction”. The Interpretation ([15]; 25 ppm) was “Cytotoxic (if the percentage viability is less than 70% of the untreated control, then the substance is considered cytotoxic)”, the “Percentage of Control/Percentage Viability (%)” value ([15]; 25 ppm) was 62.67 ± 20.39% and the Interpretation ([15]; 50 ppm) was “Non cytotoxic (if the percentage viability is less than 70% of the untreated control, then the substance is considered cytotoxic)”. The “Percentage of Control/Percentage Viability (%)” value ([15]; 50 ppm) was 72.93% and 72.93 ± 12.90%, the Interpretation ([15]; 100 ppm) was “Cytotoxic (if the percentage viability is less than 70% of the untreated control, then the substance is considered cytotoxic)” and the “Percentage of Control/Percentage Viability (%)” value ([15]; 100 ppm) was 56.41 ± 1.83%.
